Test results published in PubChem BioAssay AID2060627 (Molecular Pharmacology Branch, DTP, NCI, 2025).

Tested on: 156681-154-R-J1-PDC complex spheroid viability
Assay: Anticancer human tumor 156681-154-R-J1-PDC patient-derived melanoma cell line growth inhibition [CLK]
Settings: for IC50: curve of first compound; for viability, T/C: stronger effect = lower value; active = viability on the fitted dose curve at most 10% of control; inactive = the rest
How it was run: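 Multi-cell-type spheroids combined patient-derived tumor cells with HUVEC endothelial cells and human mesenchymal stem cells. Paired agents were dosed in half-log steps down from about clinical Cmax, or from 10 microM where Cmax was unknown.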
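Also: spheroids exposed to the agents for seven days.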
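For viability, T/C in this document: 100% = DMSO vehicle control viability.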

COc1cccc2c1C(=O)c1c(O)c3c(c(O)c1C2=O)CC(O)(C(=O)CO)CC3OC1CC(N)C(O)C(C)O1 (centres undefined) + CN1CCN(c2cc(C(=O)Nc3cc4cc(-c5cnn(C)c5)ccc4cn3)ccn2)CC1
< 31.6 nM: IC50 (second compound 0.0316 µM) | IC50 (second compound 0.1 µM) | IC50 (second compound 0.316 µM) | IC50 (second compound 1 µM) | IC50 (second compound 3.16 µM) | IC50 (second compound 10 µM)
inactive: viability, T/C (second compound 0.0316 µM, first compound 0.0316 µM) 43.4% | viability, T/C (second compound 0.0316 µM, first compound 0.1 µM) 48.3% | viability, T/C (second compound 0.1 µM, first compound 0.0316 µM) 30.6% | viability, T/C (second compound 0.1 µM, first compound 0.1 µM) 22.5% | viability, T/C (second compound 0.316 µM, first compound 0.0316 µM) 11.2%
active: viability, T/C (second compound 0.0316 µM, first compound 0.316 µM) 4.36% | viability, T/C (second compound 0.0316 µM, first compound 1 µM) 0.18% | viability, T/C (second compound 0.0316 µM, first compound 3.16 µM) 0.09% | viability, T/C (second compound 0.0316 µM, first compound 10 µM) 3.75% | viability, T/C (second compound 0.1 µM, first compound 0.316 µM) 3.39% | viability, T/C (second compound 0.1 µM, first compound 1 µM) 0.14% | viability, T/C (second compound 0.1 µM, first compound 3.16 µM) 0.09% | viability, T/C (second compound 0.1 µM, first compound 10 µM) 0.26% | viability, T/C (second compound 0.316 µM, first compound 0.1 µM) 5.67% | viability, T/C (second compound 0.316 µM, first compound 0.316 µM) 0.29% | viability, T/C (second compound 0.316 µM, first compound 1 µM) 0.1% | viability, T/C (second compound 0.316 µM, first compound 3.16 µM) 0.2% | viability, T/C (second compound 0.316 µM, first compound 10 µM) 1.51% | viability, T/C (second compound 1 µM, first compound 0.0316 µM) 0.37% | viability, T/C (second compound 1 µM, first compound 0.1 µM) 0.13% | viability, T/C (second compound 1 µM, first compound 0.316 µM) 0.57% | viability, T/C (second compound 1 µM, first compound 1 µM) 2.6% | viability, T/C (second compound 1 µM, first compound 3.16 µM) 0.76% | viability, T/C (second compound 1 µM, first compound 10 µM) 0.18% | viability, T/C (second compound 3.16 µM, first compound 0.0316 µM) 0.05% | viability, T/C (second compound 3.16 µM, first compound 0.1 µM) 0.07% | viability, T/C (second compound 3.16 µM, first compound 0.316 µM) 0.08% | viability, T/C (second compound 3.16 µM, first compound 1 µM) 1.69% | viability, T/C (second compound 3.16 µM, first compound 3.16 µM) 1.88% | viability, T/C (second compound 3.16 µM, first compound 10 µM) 0.27% | viability, T/C (second compound 10 µM, first compound 0.0316 µM) 0.05% | viability, T/C (second compound 10 µM, first compound 0.1 µM) 1.66% | viability, T/C (second compound 10 µM, first compound 0.316 µM) 2.85% | viability, T/C (second compound 10 µM, first compound 1 µM) 0.12% | viability, T/C (second compound 10 µM, first compound 3.16 µM) 1.59% | viability, T/C (second compound 10 µM, first compound 10 µM) 0.51%

C=CC(=O)Nc1cc(Nc2nccc(-c3cn(C)c4ccccc34)n2)c(OC)cc1N(C)CCN(C)C + CN1CCN(c2cc(C(=O)Nc3cc4cc(-c5cnn(C)c5)ccc4cn3)ccn2)CC1
< 0.949 nM: IC50 (second compound 0.316 µM) | IC50 (second compound 1 µM) | IC50 (second compound 3.16 µM) | IC50 (second compound 10 µM)
> 300 nM: IC50 (second compound 0.0316 µM) | IC50 (second compound 0.1 µM)
active: viability, T/C (second compound 1 µM, first compound 0.000949 µM) 0.2% | viability, T/C (second compound 1 µM, first compound 0.003 µM) 0.66% | viability, T/C (second compound 1 µM, first compound 0.00949 µM) 0.19% | viability, T/C (second compound 1 µM, first compound 0.03 µM) 0.27% | viability, T/C (second compound 1 µM, first compound 0.0949 µM) 0.26% | viability, T/C (second compound 1 µM, first compound 0.3 µM) 1.38% | viability, T/C (second compound 3.16 µM, first compound 0.000949 µM) 0.16% | viability, T/C (second compound 3.16 µM, first compound 0.003 µM) 1.53% | viability, T/C (second compound 3.16 µM, first compound 0.00949 µM) 0.47% | viability, T/C (second compound 3.16 µM, first compound 0.03 µM) 0.12% | viability, T/C (second compound 3.16 µM, first compound 0.0949 µM) 1.26% | viability, T/C (second compound 3.16 µM, first compound 0.3 µM) 0.93% | viability, T/C (second compound 10 µM, first compound 0.000949 µM) 1.34% | viability, T/C (second compound 10 µM, first compound 0.003 µM) 0.16% | viability, T/C (second compound 10 µM, first compound 0.00949 µM) 0.96% | viability, T/C (second compound 10 µM, first compound 0.03 µM) 1.65% | viability, T/C (second compound 10 µM, first compound 0.0949 µM) 2.39% | viability, T/C (second compound 10 µM, first compound 0.3 µM) 2.57%
inactive: viability, T/C (second compound 0.0316 µM, first compound 0.000949 µM) 102% | viability, T/C (second compound 0.0316 µM, first compound 0.003 µM) 91.7% | viability, T/C (second compound 0.0316 µM, first compound 0.00949 µM) 112% | viability, T/C (second compound 0.0316 µM, first compound 0.03 µM) 89.8% | viability, T/C (second compound 0.0316 µM, first compound 0.0949 µM) 94.8% | viability, T/C (second compound 0.0316 µM, first compound 0.3 µM) 90% | viability, T/C (second compound 0.1 µM, first compound 0.000949 µM) 99.7% | viability, T/C (second compound 0.1 µM, first compound 0.003 µM) 90.2% | viability, T/C (second compound 0.1 µM, first compound 0.00949 µM) 97.7% | viability, T/C (second compound 0.1 µM, first compound 0.03 µM) 94.7% | viability, T/C (second compound 0.1 µM, first compound 0.0949 µM) 77.6% | viability, T/C (second compound 0.1 µM, first compound 0.3 µM) 79.9% | viability, T/C (second compound 0.316 µM, first compound 0.000949 µM) 19.2% | viability, T/C (second compound 0.316 µM, first compound 0.003 µM) 26.4% | viability, T/C (second compound 0.316 µM, first compound 0.00949 µM) 23.4% | viability, T/C (second compound 0.316 µM, first compound 0.03 µM) 13.1% | viability, T/C (second compound 0.316 µM, first compound 0.0949 µM) 24.2% | viability, T/C (second compound 0.316 µM, first compound 0.3 µM) 11.1%
